39 compounds from US20090111801A1, “SUBSTITUTED PYRAZINONE DERIVATIVES FOR USE AS A MEDICINE” (Janssen Pharmaceutica N.V., priority 2006, published 2009) can be followed below.

One experiment has as its target T1, hα2A receptor (Homo sapiens, UniProt P08913).
T1 construct: expressed in transfected cells; host or cells: CHO cells, stably transfected; membrane preparation
T1 sequence (P08913 1-465): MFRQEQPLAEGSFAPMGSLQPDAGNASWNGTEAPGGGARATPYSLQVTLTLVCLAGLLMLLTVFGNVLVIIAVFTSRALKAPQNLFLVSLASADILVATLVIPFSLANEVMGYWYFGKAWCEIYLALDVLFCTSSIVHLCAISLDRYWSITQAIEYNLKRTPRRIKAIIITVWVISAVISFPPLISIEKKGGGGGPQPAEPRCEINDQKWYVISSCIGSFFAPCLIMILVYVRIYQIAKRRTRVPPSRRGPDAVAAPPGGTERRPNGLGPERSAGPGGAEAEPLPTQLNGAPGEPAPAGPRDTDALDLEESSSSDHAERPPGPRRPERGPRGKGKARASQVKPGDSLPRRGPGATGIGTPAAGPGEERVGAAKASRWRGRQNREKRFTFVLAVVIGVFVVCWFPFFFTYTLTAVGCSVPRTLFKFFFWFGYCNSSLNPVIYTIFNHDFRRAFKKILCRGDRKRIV
Briefly: Radioligand binding experiment for α2A-adrenoceptor ([3H]raulwolscine, CHO cell membranes). Particulars: [3H]raulwolscine binding; for IC50: read-out: h-α2A pIC50 (converted).

For a further experiment, the target named is T2, hα2C receptor (Homo sapiens, UniProt P18825).
T2 construct: expressed in transfected cells; host or cells: CHO cells, stably transfected; membrane preparation
T2 sequence (P18825 1-462): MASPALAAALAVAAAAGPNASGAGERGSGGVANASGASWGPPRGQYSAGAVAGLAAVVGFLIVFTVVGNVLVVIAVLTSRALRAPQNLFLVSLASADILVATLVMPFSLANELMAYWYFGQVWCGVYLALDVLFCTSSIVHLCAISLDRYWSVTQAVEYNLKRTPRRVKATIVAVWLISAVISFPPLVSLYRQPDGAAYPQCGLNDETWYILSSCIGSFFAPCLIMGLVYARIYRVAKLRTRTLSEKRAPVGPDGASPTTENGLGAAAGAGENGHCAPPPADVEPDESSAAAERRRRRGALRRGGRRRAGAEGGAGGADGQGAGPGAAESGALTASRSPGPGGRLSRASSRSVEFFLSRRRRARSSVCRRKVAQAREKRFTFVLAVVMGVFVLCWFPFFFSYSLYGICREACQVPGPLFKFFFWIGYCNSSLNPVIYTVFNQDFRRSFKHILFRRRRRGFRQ
Briefly: Radioligand binding experiment for α2C-adrenoceptor ([3H]raulwolscine, CHO cell membranes). The conditions noted are these: [3H]raulwolscine binding; for IC50: read-out: h-α2C pIC50 (converted).

For another experiment, the target named is T3, 5HT-Transporter (Homo sapiens, UniProt P31645).
T3 construct: Human platelet membranes (Oceanix Biosciences Corporation, Hanover, Md., USA) were thawed; tissue Oceanix Biosciences Corporation, Hanover, Md., USA; host or cells: human platelet membranes
T3 sequence (P31645 whole entry): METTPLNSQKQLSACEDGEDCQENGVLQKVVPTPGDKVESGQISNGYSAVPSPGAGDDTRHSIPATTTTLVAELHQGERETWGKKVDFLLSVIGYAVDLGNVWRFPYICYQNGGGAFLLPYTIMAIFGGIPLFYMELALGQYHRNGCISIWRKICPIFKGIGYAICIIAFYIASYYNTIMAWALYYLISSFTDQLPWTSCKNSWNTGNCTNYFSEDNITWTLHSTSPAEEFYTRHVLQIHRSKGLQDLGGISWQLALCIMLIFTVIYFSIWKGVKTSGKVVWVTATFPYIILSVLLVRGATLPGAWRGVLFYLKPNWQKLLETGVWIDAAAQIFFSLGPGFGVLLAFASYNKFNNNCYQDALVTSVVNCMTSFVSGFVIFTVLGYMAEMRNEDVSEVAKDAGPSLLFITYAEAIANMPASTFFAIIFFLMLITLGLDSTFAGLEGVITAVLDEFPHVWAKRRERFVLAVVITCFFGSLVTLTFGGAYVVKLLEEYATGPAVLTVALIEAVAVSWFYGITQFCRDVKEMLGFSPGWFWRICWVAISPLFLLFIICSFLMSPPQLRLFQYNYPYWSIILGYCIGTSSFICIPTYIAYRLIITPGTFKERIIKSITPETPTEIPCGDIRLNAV
Briefly: Binding experiment for the 5HT-transporter ([3H]paroxetine, human platelet membranes). Particulars: [3H]paroxetine 0.5 nM; for IC50: read-out: h-5HTT pIC50 (converted). A digest of the protocol: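 Competition binding of [3H]paroxetine to human platelet membranes in Tris-HCl 50 mM, 120 mM NaCl, 5 mM KCl, with filtration and scintillation counting.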

For `C/C(=C\c1ccccc1)CN1CCC(Nc2nccn(-c3ccc(N4CCOCC4)cc3)c2=O)CC1` [2-43], the IC50 is 0.126 µM on hα2A receptor, 0.02 µM on hα2C receptor and 3.98 µM at 5HT-Transporter.

On to `C/C(=C\c1ccccc1)CN1CCC(Nc2nccn(-c3ccc(CN4CCOCC4)cc3)c2=O)CC1` [2-44], for which the results for the IC50 on hα2A receptor, at hα2C receptor and on 5HT-Transporter were 0.0501 µM, 0.00631 µM and 2 µM, respectively.

As to `C/C(=C\c1ccccc1)CN1CCC(Nc2nccn(Cc3cccc(CN4CCOCC4)c3)c2=O)CC1` [2-45], the IC50 was 0.0501 µM on hα2A receptor, 0.01 µM at hα2C receptor and 0.794 µM on 5HT-Transporter.

On to `C/C(=C\c1ccccc1)CN1CCC(Nc2nccn(-c3ccc(C(=O)N4CCOCC4)cc3)c2=O)CC1` [2-46], for which the IC50 is 0.0316 µM at hα2A receptor, 0.00398 µM on hα2C receptor and 0.794 µM at 5HT-Transporter.

For the compound `C/C(=C\c1ccccc1)CN1CCC(Nc2nccn(CCn3cccc3)c2=O)CC1` [2-47], the IC50 was 0.2 µM at hα2A receptor, 0.0316 µM at hα2C receptor and 3.98 µM on 5HT-Transporter.

`C/C(=C\c1ccccc1)CN1CCC(Nc2nccn(CN3C(=O)c4ccccc4C3=O)c2=O)CC1` [2-48]: the IC50 was 0.0316 µM at hα2A receptor, 0.00631 µM on hα2C receptor and 0.158 µM on 5HT-Transporter.

Take `C/C(=C\c1ccccc1)CN1CCC(Nc2nccn(CCN3C(=O)c4ccccc4C3=O)c2=O)CC1` [2-49]: the IC50 was 0.158 µM at hα2A receptor, 0.0158 µM at hα2C receptor and 1 µM on 5HT-Transporter.

Take `C/C(=C\c1ccccc1)CN1CCC(Nc2nccn(CCCN3C(=O)c4ccccc4C3=O)c2=O)CC1` [2-50]: the IC50 was 0.0316 µM at hα2A receptor, 0.001 µM at hα2C receptor and 0.126 µM on 5HT-Transporter.

`C/C(=C\c1ccccc1)CN1CCC(Nc2nccn(CCCCN3C(=O)c4ccccc4C3=O)c2=O)CC1` [2-51]: the IC50 at hα2A receptor was 0.1 µM; at hα2C receptor it was 0.00398 µM; on 5HT-Transporter it was 0.158 µM.

Regarding `C/C(=C\c1ccccc1)CN1CCC(Nc2nccn(C/C=C/CN3C(=O)c4ccccc4C3=O)c2=O)CC1` [2-52], the values for the IC50 on hα2A receptor, on hα2C receptor and on 5HT-Transporter were 0.0501 µM, 0.002 µM and 0.0316 µM, respectively.

On to `C/C(=C\c1ccccc1)CN1CCC(Nc2nccn(CC#CCN3C(=O)c4ccccc4C3=O)c2=O)CC1` [2-53], for which the IC50 on hα2A receptor was 0.2 µM; on hα2C receptor it was 0.00316 µM; on 5HT-Transporter, 0.0631 µM.

Regarding `C/C(=C\c1ccccc1)CN1CCC(Nc2nccn(CC#CCN3C(=O)c4ccccc4C3=O)c2=O)CC1` [2-54], the IC50 on hα2A receptor was 0.126 µM; on hα2C receptor it was 0.00631 µM; on 5HT-Transporter, 0.0501 µM.

Regarding `C/C(=C\c1ccccc1)CN1CCC(Nc2nccn(-c3ccc(CN4C(=O)c5ccccc5C4=O)cc3)c2=O)CC1` [2-55], the “h-α2A pIC50” value on hα2A receptor was found to be 6.8. For the same compound, on hα2C receptor, the “h-α2C pIC50” value turned out to be 8.0. Moreover, the “h-5HTT pIC50” value at 5HT-Transporter amounted to 6.6.

Take `C/C(=C\c1ccccc1)CN1CCC(Nc2nccn(CC(=O)O)c2=O)CC1` [3-1]: at hα2A receptor, the “h-α2A pIC50” value was determined as 6.6. Further, at hα2C receptor, the “h-α2C pIC50” value was determined as 7.4. In addition, the “h-5HTT pIC50” value on 5HT-Transporter is recorded as less than 5.

In the case of `C/C(=C\c1ccccc1)CN1CCC(Nc2nccn(-c3cccc(CO)c3)c2=O)CC1` [3-2], the IC50 was 0.0794 µM at hα2A receptor, 0.0126 µM at hα2C receptor and 5.01 µM at 5HT-Transporter.

Regarding `C/C(=C\c1ccccc1)CN1CCC(Nc2nccn(-c3ccc(CO)cc3)c2=O)CC1` [3-3], the “h-α2A pIC50” value on hα2A receptor is recorded as 6.8. On hα2C receptor, the “h-α2C pIC50” value was found to be 7.8. Further, the “h-5HTT pIC50” value on 5HT-Transporter came out at 5.2.

Regarding `C/C(=C\c1ccccc1)CN1CCC(Nc2nccn(-c3ccc(C(=O)O)cc3)c2=O)CC1` [3-4], the values for the IC50 at hα2A receptor, on hα2C receptor and on 5HT-Transporter were 0.631 µM, 0.0794 µM and more than 10 µM, respectively.

Regarding `COCCCn1ccnc(NC2CCN(C/C(C)=C/c3ccccc3)CC2)c1=O` [3-6], the values for the IC50 on hα2A receptor, at hα2C receptor and at 5HT-Transporter were 0.631 µM, 0.0631 µM and 3.98 µM, respectively.

For `COC(=O)Cn1ccnc(NC2CCN(C/C(C)=C/c3ccccc3)CC2)c1=O` [3-7], the IC50 at hα2A receptor was 0.1 µM; on hα2C receptor, 0.01 µM; on 5HT-Transporter, 7.94 µM.

Regarding `COC(=O)CCCCn1ccnc(NC2CCN(C/C(C)=C/c3ccccc3)CC2)c1=O` [3-8], the IC50 at hα2A receptor was 0.0794 µM; on hα2C receptor, 0.0158 µM; at 5HT-Transporter it was 0.794 µM.

For the compound `COc1ccc(-n2ccnc(NC3CCN(C/C(C)=C/c4ccccc4)CC3)c2=O)cc1` [3-9], the IC50 on hα2A receptor was 0.00501 µM; on hα2C receptor, 0.00794 µM; at 5HT-Transporter, 0.0501 µM.

As to `COc1cccc(Cn2ccnc(NC3CCN(C/C(C)=C/c4ccccc4)CC3)c2=O)c1` [3-10], the IC50 on hα2A receptor is 0.0794 µM; on hα2C receptor, 0.0316 µM; on 5HT-Transporter, 0.794 µM.

On to `COc1ccc(Cn2ccnc(NC3CCN(C/C(C)=C/c4ccccc4)CC3)c2=O)cc1` [3-11], for which the IC50 at hα2A receptor was 0.02 µM; at hα2C receptor, 0.0316 µM; on 5HT-Transporter, 0.501 µM.

For the compound `COC(=O)c1ccc(-n2ccnc(NC3CCN(C/C(C)=C/c4ccccc4)CC3)c2=O)cc1` [3-12], the values for the IC50 on hα2A receptor, at hα2C receptor and at 5HT-Transporter were 0.0316 µM, 0.0158 µM and 0.501 µM, respectively.

With `COC(=O)c1cccc(Cn2ccnc(NC3CCN(C/C(C)=C/c4ccccc4)CC3)c2=O)c1` [3-13], the IC50 on hα2A receptor was 0.0251 µM; on hα2C receptor, 0.02 µM; on 5HT-Transporter, 0.501 µM.

`COC(=O)c1ccc(Cn2ccnc(NC3CCN(C/C(C)=C/c4ccccc4)CC3)c2=O)cc1` [3-14]: the IC50 on hα2A receptor was 0.0794 µM; on hα2C receptor it was 0.0631 µM; on 5HT-Transporter it was 0.794 µM.

Consider `CCOC(=O)Cn1ccnc(NC2CCN(C/C(C)=C/c3ccccc3)CC2)c1=O` [3-16], for which the IC50 is 0.126 µM on hα2A receptor, 0.0158 µM at hα2C receptor and more than 10 µM on 5HT-Transporter.

With `CCOC(=O)CCCCn1ccnc(NC2CCN(C/C(C)=C/c3ccccc3)CC2)c1=O` [3-17], the results for the IC50 at hα2A receptor, on hα2C receptor and on 5HT-Transporter were 0.126 µM, 0.0158 µM and 0.794 µM, respectively.

For `C/C(=C\c1ccccc1)CN1CCC(Nc2nccn(CCOc3ccccc3)c2=O)CC1` [3-18], the IC50 was 0.126 µM at hα2A receptor, 0.0316 µM on hα2C receptor and 0.158 µM on 5HT-Transporter.

For `C/C(=C\c1ccccc1)CN1CCC(Nc2nccn(CCCOc3ccccc3)c2=O)CC1` [3-19], the IC50 at hα2A receptor was 0.0631 µM; on hα2C receptor it was 0.02 µM; at 5HT-Transporter, 0.2 µM.

Consider `C/C(=C\c1ccccc1)CN1CCC(Nc2nccn(CC(=O)OCc3ccccc3)c2=O)CC1` [3-20], for which the IC50 is 0.1 µM at hα2A receptor, 0.0158 µM at hα2C receptor and 3.98 µM on 5HT-Transporter.

Consider `COCCOCCn1ccnc(NC2CCN(C/C(C)=C/c3ccccc3)CC2)c1=O` [3-21], for which the results for the IC50 on hα2A receptor, on hα2C receptor and at 5HT-Transporter were 0.316 µM, 0.0398 µM and 3.98 µM, respectively.

For the compound `CSCCn1ccnc(NC2CCN(C/C(C)=C/c3ccccc3)CC2)c1=O` [4-1], the IC50 is 0.0398 µM at hα2A receptor, 0.02 µM at hα2C receptor and 3.16 µM on 5HT-Transporter.

`CSc1ccc(-n2ccnc(NC3CCN(C/C(C)=C/c4ccccc4)CC3)c2=O)cc1` [4-2]: the IC50 is 0.0126 µM on hα2A receptor, 0.00631 µM at hα2C receptor and 0.158 µM on 5HT-Transporter.

With `C/C(=C\c1ccccc1)CN1CCC(Nc2nccn(-c3ccccc3)c2=O)CC1` [5-1], the IC50 on hα2A receptor was 0.0316 µM; at hα2C receptor, 0.00501 µM; at 5HT-Transporter, 1.26 µM.

For the compound `C/C(=C\c1ccccc1)CN1CCC(Nc2nccn(-c3ccc(F)cc3)c2=O)CC1` [5-2], the IC50 is 0.0316 µM at hα2A receptor, 0.01 µM on hα2C receptor and 0.398 µM on 5HT-Transporter.

Consider `C/C(=C\c1ccccc1)CN1CCC(Nc2nccn(-c3ccc(C#N)cc3)c2=O)CC1` [5-3], for which the figures for the IC50 on hα2A receptor, on hα2C receptor and at 5HT-Transporter were 0.0501 µM, 0.01 µM and 1 µM, respectively.

Take `CCc1ccc(-n2ccnc(NC3CCN(C/C(C)=C/c4ccccc4)CC3)c2=O)cc1` [5-4]: the IC50 on hα2A receptor is 0.0398 µM; at hα2C receptor, 0.0126 µM; on 5HT-Transporter, 0.398 µM.

In the case of `C/C(=C\c1ccccc1)CN1CCC(Nc2nccn(-c3ccc(C=O)cc3)c2=O)CC1` [5-6], the IC50 on hα2A receptor was 0.0398 µM; at hα2C receptor, 0.00631 µM; on 5HT-Transporter, 2 µM.
